Results on 20 compounds are retold here after ChEMBL document CHEMBL3603817, “Potent and Selective Inhibitors of Histone Deacetylase-3 Containing Chiral Oxazoline Capping Groups and a N-(2-Aminophenyl)-benzamide Binding Unit” (J Med Chem, 2015).

Structures are written as SMILES. ≈ marks a conversion by molar mass, not a printed value.

What all share (assay type): physicochemical
The nature of data set [1]: Solubility by CLND method.
Data set [2] can be described thus: Lipophilicity, log P of the compound. The settings on record: octanol/water.
The nature of data set [3]: Distribution coefficient, log D of the compound by HPLC method. The settings on record: octanol/water.

Broadly, the solubility (kinetic) is solubility judged after dilution from a stock solution rather than from solid. Broadly, the logP is the decadic logarithm of the partition coefficient of the neutral form, usually between octanol and water. A high value points to higher lipophilicity. The term logD denotes the decadic logarithm of the distribution of all forms, ionised or not, between an organic phase and buffer at a given pH. Consider `Nc1ccccc1NC(=O)c1ccc(CNC2=N[C@@H](c3ccc(O)cc3)CO2)cc1`, for which the solubility (kinetic) in data set [1] was ≥ 130 µg/mL. In data set [2], this compound came in with a logP of 2.13. In addition, the pH-dependent lipophilicity (logD) in data set [3] worked out at 1.74.

With `Nc1ccccc1NC(=O)c1ccc(CNC2=NC(c3ccccc3)(c3ccccc3)CO2)cc1`, the solubility (kinetic) in data set [1] was 7 µg/mL (≈ 15.1 µM). The compound also registered a lipophilicity (logP) in data set [2] of 5.59. The logD in data set [3] worked out at 5.29.

As to `Nc1ccccc1NC(=O)c1ccc(CNC2=N[C@@H](c3ccccc3)CN2)cc1`, the solubility (kinetic) in data set [1] was ≥ 70 µg/mL. Moreover, the log partition coefficient (logP) in data set [2] came to 3.46. This compound yielded a pH-dependent lipophilicity (logD) in data set [3] of 1.92.

In turn, `Nc1ccccc1NC(=O)c1ccc(CNC2=N[C@@H](c3ccccc3)[C@H](c3ccccc3)O2)cc1` gave a solubility (kinetic) in data set [1] of 6 µg/mL (≈ 13 µM). The compound further had a log partition coefficient (logP) in data set [2] of 5.41. In data set [3], this compound displayed a logD of 5.01.

Compound `Nc1ccccc1NC(=O)c1ccc(CNC2=N[C@H](c3ccccc3)[C@H](c3ccccc3)O2)cc1` displayed a solubility (kinetic) in data set [1] of 73 µg/mL (≈ 158 µM). Further, the log partition coefficient (logP) in data set [2] came out at 5.01. In addition, in data set [3], the logD came out at 4.54.

Take `Nc1ccccc1NC(=O)c1ccc(CNC2=NC(c3cccc(F)c3)CO2)cc1` (stereo not drawn): the kinetic solubility in data set [1] was ≥ 131 µg/mL. Moreover, the lipophilicity (logP) in data set [2] is 3.84. Also, the pH-dependent lipophilicity (logD) in data set [3] amounted to 3.42.

As for `Nc1ccccc1NC(=O)c1ccc(CNC2=N[C@@H](Cc3c[nH]cn3)CO2)cc1`, in data set [1], the kinetic solubility is ≥ 142 µg/mL. This compound also returned a log partition coefficient (logP) in data set [2] of 0.95. Further, the pH-dependent lipophilicity (logD) in data set [3] was 0.9.

On to `Nc1ccccc1NC(=O)c1ccc(CNC2=N[C@@H](Cc3ccccc3)CO2)cc1`, for which, in data set [1], the solubility (kinetic) is ≥ 148 µg/mL. The same compound showed a logP in data set [2] of 4.15. In addition, the log distribution coefficient (logD) in data set [3] worked out at 2.86.

Take `Nc1ccccc1NC(=O)c1ccc(CNC2=N[C@@H](c3cccnc3)CO2)cc1`: the solubility (kinetic) in data set [1] was ≥ 124 µg/mL. The same compound had a logP in data set [2] of 1.78. Further, in data set [3], the logD amounted to 1.71.

In data set [1], `Nc1ccccc1NC(=O)c1ccc(CSC2=N[C@@H](c3ccccc3)CN2)cc1` displayed a kinetic solubility of 116 µg/mL (≈ 288 µM). Further, the logP in data set [2] is 4.31. In data set [3], this compound displayed a log distribution coefficient (logD) of 3.49.

`Nc1ccccc1NC(=O)c1ccc(CNC2=NC(c3ccc(C(F)(F)F)cc3)CO2)cc1` (stereo not drawn) had a kinetic solubility in data set [1] of 8 µg/mL (≈ 17.6 µM). The compound also had a lipophilicity (logP) in data set [2] of 4.72. In addition, the pH-dependent lipophilicity (logD) in data set [3] turned out to be 4.54.

`Nc1ccccc1NC(=O)c1ccc(CSC2=N[C@@H](c3cccnc3)CO2)cc1`: the kinetic solubility in data set [1] is 108 µg/mL (≈ 267 µM). Further, in data set [2], the logP turned out to be 3.32. Moreover, in data set [3], the log distribution coefficient (logD) was determined as 3.19.

For the compound `Nc1ccccc1NC(=O)c1ccc(CNC2=N[C@@H](c3ccccc3)CO2)cc1`, the logP in data set [2] came to 3.74. Besides, the logD in data set [3] was determined as 3.1.

With `Nc1ccccc1NC(=O)c1ccc(CNC2=NC(c3ccc(F)cc3)CO2)cc1` (stereo not drawn), the kinetic solubility in data set [1] stood at 147 µg/mL (≈ 363 µM). The compound also came in with a lipophilicity (logP) in data set [2] of 3.97.

As for `Nc1ccccc1NC(=O)c1ccc(CSC2=N[C@@H](Cc3ccccc3)CO2)cc1`, in data set [1], the kinetic solubility is 31 µg/mL (≈ 74.2 µM). Besides, the lipophilicity (logP) in data set [2] turned out to be 5.67. In data set [3], this compound displayed a logD of 5.41.

`Nc1ccccc1NC(=O)c1ccc(CNC2=N[C@H](Cc3c[nH]cn3)CO2)cc1`: in data set [1], the solubility (kinetic) was ≥ 158 µg/mL. The same compound gave a logP in data set [2] of 0.93. For the same compound, the logD in data set [3] was determined as 0.89.

For `Nc1ccccc1NC(=O)c1ccc(CNC2=NC[C@@H](c3ccccc3)O2)cc1`, in data set [1], the solubility (kinetic) turned out to be 98 µg/mL (≈ 254 µM). In addition, the log partition coefficient (logP) in data set [2] is 3.58. In addition, the log distribution coefficient (logD) in data set [3] was found to be 2.79.

For the compound `Nc1ccccc1NC(=O)c1ccc(CNc2nccc(-c3cccnc3)n2)cc1` [MOCETINOSTAT], in data set [1], the solubility (kinetic) stood at 107 µg/mL (≈ 270 µM). This compound also showed a logP in data set [2] of 2.96. Moreover, the logD in data set [3] came to 2.96.

In data set [1], `Nc1ccccc1NC(=O)c1ccc(CNC2=NC[C@H](c3ccccc3)O2)cc1` showed a solubility (kinetic) of 77 µg/mL (≈ 199 µM). Further, the lipophilicity (logP) in data set [2] was found to be 3.84. The same compound gave a pH-dependent lipophilicity (logD) in data set [3] of 2.99.

As to `Nc1ccccc1NC(=O)c1ccc(CNC2=N[C@H](c3ccccc3)CO2)cc1`, in data set [1], the kinetic solubility was ≥ 151 µg/mL. Besides, the logP in data set [2] was found to be 3.76. In addition, the logD in data set [3] stood at 3.09.
